According to patent US20210121414A1, “METHOD FOR PRODUCING A PHARMACEUTICAL COMPOSITION OF POLYMERIC NANOPARTICLES FOR TREATING NEUROPATHIC PAIN CAUSED BY […] COMPRESSION” (UNIVERSIDAD DE SEVILLA, priority 2015, published 2021):

Experiments:
[1] = tested on: Chronic constriction injury (CCI) model of mononeuropathy, mechanical hyperalgesia; assay: Paw-pinch test of mechanical hyperalgesia in chronic constriction injury (CCI) rats after single oral administration; type: in vivo, Harlan Sprague-Dawley male albino rats; conditions: CB13 alone
Experimental: Harlan Sprague-Dawley male albino rats (230-350 g), provided by the University of Cádiz Animal Experimentation Unit registered under the number ES110120000210, were used. The animals were kept under standard housing conditions (21° C., 12h light-dark cycle, “ad libitum” water and food). All experiments were carried out in accordance with the ethical guidelines for working with experimental animals proposed by the International Association for the Study of Pain […] and by the Federation of Laboratory Animal Science Associations (FELASA).
Chronic constriction injury, (CCI) was used as a model of mononeuropathy since it is a model that correlates well with the symptoms presented in the patients (spontaneous pain, mechanical and thermal allodynia and hyperalgesia.
Nociceptive behavior was evaluated in the ipsi- and contralateral paw to the ligation for sciatic nerve […]. The presence of mechanical hyperalgesia was assessed by using the paw-pinch test. Thus, gradual, increasing pressure (starting with 30 g of pressure) was exerted on the rear part of the paw using a motorized device (Analgesia Meter 57215, UGO BASILE). The cut-off pressure was set at 250 g to prevent possible damage to the paw. Two measurements were taken on each paw, 5 minutes apart, and the average value was used for statistical purposes. Mechanical hyperalgesia appeared as the pressure on the paw decreased.

[2] = cited from earlier work
[3] = tested on: established mechanical hyperalgesia; conditions: cited from earlier work
central nervous system = conditions: rats; cited from earlier work
[4] = cited from earlier work; remark: listed apart in the source

For `CCCCCOc1ccc(C(=O)c2cccc3ccccc23)c2ccccc12` [CB13, 1-naphthalenyl[4-(pentyloxy)-1-naphthalenyl]methanone], the “anti-hyperalgesic effect 9 hours after administration” value ([1]; 9 hours) is listed as “continued to be effective but to a lesser extent”, the “anti-hyperalgesic effect after 24 hours” value ([1]; 24 hours) is listed as “its effectiveness had disappeared” and the aqueous solubility [2] is listed as 0.001-0.002 mg/m L. For the same compound, the “antihyperalgesic activity in animal models” value ([3]; animal models) was “powerful antihyperalgesic activity”, the “effect on established mechanical hyperalgesia” value ([3]; oral administration and local injection into the hind paw, pig and rat) was “reverses the established mechanical hyperalgesia” and the “dose with significant CNS effects relative to the oral dose required to reverse hyperalgesia” value (central nervous system) was 20 times. For the same compound, the “penetration into the brain” value ([4]; in vivo) was “limited penetration into the brain” and the “absorption after oral administration” value ([4]; oral) was “not completely absorbed”.
